Source: the NIST ThermoML archive (doi:10.1016/j.jct.2016.04.018)
± gives the expanded uncertainty stated by the source.

Details: 298.15 K; 101.3 kPa; Crystal; flotation method

O=[N+]([O-])c1ccc(O)c2ncccc12 [5-nitro-8-quinolinol]
mass density: 1489.7 ± 2.5 kg/m3
